Results reported in PubChem BioAssay (NCI).
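Assay format: 96-well plates, 48-hour exposure. TGI: total growth inhibition.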

Columns and labels:
Experiment in all cases: NCI tumour cell line growth inhibition, 48 h
786-0 renal = test system: 786-0 renal
A498 renal = test system: A498 renal
ACHN renal = test system: ACHN renal
BT-549 breast = test system: BT-549 breast
CAKI-1 renal = test system: CAKI-1 renal
CCRF-CEM leukemia = test system: CCRF-CEM leukemia
COLO 205 colon = test system: COLO 205 colon
DU-145 prostate = test system: DU-145 prostate
EKVX NSCLC = test system: EKVX NSCLC
HCC-2998 colon = test system: HCC-2998 colon
HCT-116 colon = test system: HCT-116 colon
HCT-15 colon = test system: HCT-15 colon
HL-60(TB) leukemia = test system: HL-60(TB) leukemia
HOP-62 NSCLC = test system: HOP-62 NSCLC
HOP-92 NSCLC = test system: HOP-92 NSCLC
HT29 colon = test system: HT29 colon
IGROV1 ovarian = test system: IGROV1 ovarian
KM12 colon = test system: KM12 colon
LOX IMVI melanoma = test system: LOX IMVI melanoma
MALME-3M melanoma = test system: MALME-3M melanoma
MCF7 breast = test system: MCF7 breast
MDA-MB-231 breast = test system: MDA-MB-231 breast
MDA-MB-435 = test system: MDA-MB-435
MDA-N = test system: MDA-N
MOLT-4 leukemia = test system: MOLT-4 leukemia
NCI-H226 lung = test system: NCI-H226 lung
NCI-H23 lung = test system: NCI-H23 lung
NCI-H460 lung = test system: NCI-H460 lung
NCI-H522 lung = test system: NCI-H522 lung
OVCAR-3 ovarian = test system: OVCAR-3 ovarian
OVCAR-4 ovarian = test system: OVCAR-4 ovarian
OVCAR-5 ovarian = test system: OVCAR-5 ovarian
PC-3 prostate = test system: PC-3 prostate
RPMI-8226 leukemia = test system: RPMI-8226 leukemia
RXF 393 renal = test system: RXF 393 renal
SF-268 CNS = test system: SF-268 CNS
SF-295 CNS = test system: SF-295 CNS
SK-MEL-2 melanoma = test system: SK-MEL-2 melanoma
SK-MEL-28 melanoma = test system: SK-MEL-28 melanoma
SK-MEL-5 melanoma = test system: SK-MEL-5 melanoma
SK-OV-3 ovarian = test system: SK-OV-3 ovarian
SN12C renal = test system: SN12C renal
SNB-19 CNS = test system: SNB-19 CNS
SR leukemia = test system: SR leukemia
SW-620 colon = test system: SW-620 colon
TK-10 renal = test system: TK-10 renal
U251 CNS = test system: U251 CNS
UACC-257 melanoma = test system: UACC-257 melanoma
UACC-62 melanoma = test system: UACC-62 melanoma
UO-31 renal = test system: UO-31 renal
A549 NSCLC = test system: A549 NSCLC
HS 578T breast = test system: HS 578T breast
K-562 leukemia = test system: K-562 leukemia
M14 melanoma = test system: M14 melanoma
NCI/ADR-RES ovarian = test system: NCI/ADR-RES ovarian
OVCAR-8 ovarian = test system: OVCAR-8 ovarian
SNB-75 CNS = test system: SNB-75 CNS
T-47D breast = test system: T-47D breast

Structure (SMILES): [N-]=[N+]=CC(=O)OCCCCl
- TGI (786-0 renal): > 100 µM
- TGI (A498 renal): > 100 µM
- TGI (ACHN renal): > 100 µM
- TGI (BT-549 breast): > 100 µM
- TGI (CAKI-1 renal): > 100 µM
- TGI (CCRF-CEM leukemia): > 100 µM
- TGI (COLO 205 colon): > 100 µM
- TGI (DU-145 prostate): > 100 µM
- TGI (EKVX NSCLC): > 100 µM
- TGI (HCC-2998 colon): > 100 µM
- TGI (HCT-116 colon): > 100 µM
- TGI (HCT-15 colon): > 100 µM
- TGI (HL-60(TB) leukemia): > 100 µM
- TGI (HOP-62 NSCLC): > 100 µM
- TGI (HOP-92 NSCLC): > 100 µM
- TGI (HT29 colon): > 100 µM
- TGI (IGROV1 ovarian): > 100 µM
- TGI (KM12 colon): > 100 µM
- TGI (LOX IMVI melanoma): > 100 µM
- TGI (MALME-3M melanoma): > 100 µM
- TGI (MCF7 breast): > 100 µM
- TGI (MDA-MB-231 breast): > 100 µM
- TGI (MDA-MB-435): > 100 µM
- TGI (MDA-N): > 100 µM
- TGI (MOLT-4 leukemia): > 100 µM
- TGI (NCI-H226 lung): > 100 µM
- TGI (NCI-H23 lung): > 100 µM
- TGI (NCI-H460 lung): > 100 µM
- TGI (NCI-H522 lung): > 100 µM
- TGI (OVCAR-3 ovarian): > 100 µM
- TGI (OVCAR-4 ovarian): > 100 µM
- TGI (OVCAR-5 ovarian): > 100 µM
- TGI (PC-3 prostate): > 100 µM
- TGI (RPMI-8226 leukemia): > 100 µM
- TGI (RXF 393 renal): > 100 µM
- TGI (SF-268 CNS): > 100 µM
- TGI (SF-295 CNS): > 100 µM
- TGI (SK-MEL-2 melanoma): > 100 µM
- TGI (SK-MEL-28 melanoma): > 100 µM
- TGI (SK-MEL-5 melanoma): > 100 µM
- TGI (SK-OV-3 ovarian): > 100 µM
- TGI (SN12C renal): > 100 µM
- TGI (SNB-19 CNS): > 100 µM
- TGI (SR leukemia): > 100 µM
- TGI (SW-620 colon): > 100 µM
- TGI (TK-10 renal): > 100 µM
- TGI (U251 CNS): > 100 µM
- TGI (UACC-257 melanoma): > 100 µM
- TGI (UACC-62 melanoma): > 100 µM
- TGI (UO-31 renal): > 100 µM

Structure (SMILES): CC(C)c1ccccc1SCc1cc(=O)cc(CSc2ccccc2C(C)C)o1
- TGI (A498 renal): 40.9 µM
- TGI (A549 NSCLC): > 100 µM
- TGI (ACHN renal): > 100 µM
- TGI (CAKI-1 renal): 49.4 µM
- TGI (CCRF-CEM leukemia): 95.6 µM
- TGI (COLO 205 colon): > 100 µM
- TGI (DU-145 prostate): 55.4 µM
- TGI (EKVX NSCLC): 38.4 µM
- TGI (HCC-2998 colon): 84.5 µM
- TGI (HCT-15 colon): 94.3 µM
- TGI (HL-60(TB) leukemia): 82 µM
- TGI (HOP-62 NSCLC): 43.6 µM
- TGI (HOP-92 NSCLC): 36.7 µM
- TGI (HS 578T breast): 32.9 µM
- TGI (HT29 colon): 41.2 µM
- TGI (IGROV1 ovarian): 33.1 µM
- TGI (K-562 leukemia): > 100 µM
- TGI (KM12 colon): 32.9 µM
- TGI (LOX IMVI melanoma): 84.4 µM
- TGI (M14 melanoma): 49.5 µM
- TGI (MALME-3M melanoma): 44.4 µM
- TGI (MCF7 breast): 57.5 µM
- TGI (MDA-MB-231 breast): 49.5 µM
- TGI (MDA-MB-435): 32.8 µM
- TGI (MDA-N): 44.9 µM
- TGI (MOLT-4 leukemia): 93.3 µM
- TGI (NCI-H226 lung): 41.7 µM
- TGI (NCI-H23 lung): > 100 µM
- TGI (NCI-H460 lung): 69.7 µM
- TGI (NCI/ADR-RES ovarian): 41.5 µM
- TGI (OVCAR-3 ovarian): 39.2 µM
- TGI (OVCAR-4 ovarian): 46.9 µM
- TGI (OVCAR-5 ovarian): 34.7 µM
- TGI (OVCAR-8 ovarian): 54.9 µM
- TGI (PC-3 prostate): 30.7 µM
- TGI (RPMI-8226 leukemia): > 100 µM
- TGI (RXF 393 renal): > 100 µM
- TGI (SF-268 CNS): 33.4 µM
- TGI (SF-295 CNS): 67.5 µM
- TGI (SK-MEL-2 melanoma): 34.5 µM
- TGI (SK-MEL-28 melanoma): 57.8 µM
- TGI (SK-MEL-5 melanoma): > 100 µM
- TGI (SK-OV-3 ovarian): 48 µM
- TGI (SNB-19 CNS): > 100 µM
- TGI (SNB-75 CNS): 36.5 µM
- TGI (SR leukemia): > 100 µM
- TGI (SW-620 colon): 81.2 µM
- TGI (T-47D breast): > 100 µM
- TGI (TK-10 renal): 38.7 µM
- TGI (U251 CNS): 86.8 µM
- TGI (UACC-257 melanoma): 51 µM
- TGI (UACC-62 melanoma): 36.2 µM
- TGI (UO-31 renal): > 100 µM
